This is an account of results in ChEMBL document CHEMBL4387716, “Discovery of trans-3-(pyridin-3-yl)acrylamide-derived sulfamides as potent nicotinamide phosphoribosyltransferase (NAMPT) inhibitors for the potential treatment of cancer” (Bioorg Med Chem Lett, 2019).

Broadly, the IC50 is the point on the concentration scale where inhibition reaches its midpoint.

SMILES strings stand for the structures.

Test [1] has as its system DU-145. Put plainly: Antiproliferative activity against human DU145 cells assessed as inhibition of cell growth after 72 hrs by CCK-8 assay. The class given is functional, cell-based. Particulars: DU-145, 72 h. A general note: Tetrazolium assays rely on reduction of a dye to a coloured formazan, in cell work by metabolically active cells.
The target of test [2] is Nicotinamide phosphoribosyltransferase (Homo sapiens, UniProt P43490). The test is described as follows: Inhibition of recombinant NAMPT (unknown origin) using NAM and PRPP as substrates incubated for 60 mins in presence of NMNAT1 measured at 5 mins interval for 30 mins by WST1 assay.
In test [3] the test system is K562. Put plainly: Antiproliferative activity against human K562 cells assessed as inhibition of cell growth after 72 hrs by CCK-8 assay. The class given is functional, cell-based. Particulars: K562, 72 h.
Test [4] concerns MCF7. Put plainly: Antiproliferative activity against human MCF7 cells assessed as inhibition of cell growth after 72 hrs by CCK-8 assay. The format is functional, cell-based. Particulars: MCF7, 72 h.
The test system of test [5] is HeLa. The test is described as follows: Antiproliferative activity against human HeLa cells assessed as inhibition of cell growth after 72 hrs by CCK-8 assay. The class given is functional, cell-based.
The test system of test [6] is Huh-7. Put plainly: Antiproliferative activity against human HuH7 cells assessed as inhibition of cell growth after 72 hrs by CCK-8 assay. The class given is functional, cell-based. Particulars: Huh-7, 72 h.
Test [7] has as its system NCI-H1975. Put plainly: Antiproliferative activity against human NCI-H1975 cells harboring EGFR L858R/T790M mutation assessed as inhibition of cell growth after 72 hrs by CCK-8 assay. The class given is functional, cell-based. Particulars: NCI-H1975, 72 h.

Sequence of Nicotinamide phosphoribosyltransferase (P43490 whole entry): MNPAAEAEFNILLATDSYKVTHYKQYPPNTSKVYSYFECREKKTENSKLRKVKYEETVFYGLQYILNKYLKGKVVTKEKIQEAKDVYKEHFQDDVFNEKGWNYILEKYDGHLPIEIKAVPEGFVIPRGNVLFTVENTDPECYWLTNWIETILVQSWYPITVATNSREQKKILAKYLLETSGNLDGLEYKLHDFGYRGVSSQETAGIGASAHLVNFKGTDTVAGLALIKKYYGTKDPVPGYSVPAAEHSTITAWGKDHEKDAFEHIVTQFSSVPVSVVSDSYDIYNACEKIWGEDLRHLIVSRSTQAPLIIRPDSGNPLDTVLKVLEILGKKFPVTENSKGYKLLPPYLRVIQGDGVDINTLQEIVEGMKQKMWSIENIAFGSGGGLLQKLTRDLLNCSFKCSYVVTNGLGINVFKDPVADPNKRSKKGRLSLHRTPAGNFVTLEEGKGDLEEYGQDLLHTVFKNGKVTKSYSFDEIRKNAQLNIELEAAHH

As to `O=C(/C=C/c1cccnc1)NCCCCCCCc1ccc(S(=O)(=O)Nc2ccccc2)cc1`, the IC50 in test [1] turned out to be 438 nM; in test [2], 16.4 nM; in test [3] it was 56.5 nM; in test [4] it was 37.6 nM; in test [5], 223 nM; in test [6] it was 1220 nM. For the same compound, in test [7], the IC50 was determined as 330 nM.

On to `O=C(/C=C/c1cccnc1)NCCCCCCc1ccc(S(=O)(=O)Nc2ccccc2)cc1`, for which the IC50 in test [1] turned out to be 328 nM; in test [2], 14.4 nM; in test [3], 48.5 nM; in test [4], 36 nM; in test [5] it was 377 nM; in test [6], 112 nM. Further, the IC50 in test [7] amounted to 239 nM.

With `Cc1ccc(NS(=O)(=O)c2cccc(CCCCCCNC(=O)/C=C/c3cccnc3)c2)cc1`, the IC50 in test [1] stood at 34.4 nM; in test [2] it was 9.78 nM; in test [3], 2.98 nM; in test [4], 1.97 nM; in test [5], 38.8 nM; in test [6], 6.92 nM. Further, the IC50 in test [7] amounted to 17.1 nM.

For the compound `O=C(/C=C/c1cccnc1)NCCCCCCc1cccc(S(=O)(=O)Nc2ccc(F)c(Cl)c2)c1`, the IC50 in test [1] came to 150 nM; in test [2] it was 9.7 nM; in test [3], 5.31 nM; in test [4], 6.3 nM; in test [5] it was 385 nM; in test [6], 39.4 nM. For the same compound, in test [7], the IC50 worked out at 25 nM.

Turning to `O=C(/C=C/c1cccnc1)NCCCc1cccc(S(=O)(=O)Nc2ccccc2)c1`, the IC50 in test [1] amounted to 165 nM; in test [2], 235 nM; in test [3] it was 86.8 nM; in test [4], 142 nM; in test [5], 115 nM; in test [6], 384 nM. Further, the IC50 in test [7] turned out to be 261 nM.

For the compound `CCc1ccc(NS(=O)(=O)c2cccc(CCCCCCNC(=O)/C=C/c3cccnc3)c2)cc1`, the IC50 is 40.1 nM in test [1]; 31.5 nM in test [2]; 3.89 nM in test [3]; 3.64 nM in test [4]; 132 nM in test [5]; 34.6 nM in test [6]. Further, the IC50 in test [7] came out at 33.4 nM.

Take `Cc1cccc(NS(=O)(=O)c2cccc(CCCCCCNC(=O)/C=C/c3cccnc3)c2)c1`: the IC50 came to 41.7 nM in test [1]; 12.3 nM in test [2]; 4.78 nM in test [3]; 4 nM in test [4]; 65.8 nM in test [5]; 13.2 nM in test [6]. Besides, in test [7], the IC50 came out at 40.7 nM.

`O=C(/C=C/c1cccnc1)NCCCCCCc1cccc(S(=O)(=O)Nc2ccc(C(F)(F)F)cc2)c1`: the IC50 stood at 1410 nM in test [1]; 24.5 nM in test [2]; 44.9 nM in test [3]; 67.8 nM in test [4]; 1450 nM in test [5]; 164 nM in test [6]. For the same compound, in test [7], the IC50 was 175 nM.

For the compound `Cc1ccccc1NS(=O)(=O)c1cccc(CCCCCCNC(=O)/C=C/c2cccnc2)c1`, the IC50 in test [1] was 2.9 nM; in test [2], 5.08 nM; in test [3], 0.456 to 0.46 nM; in test [4], 0.226 to 0.23 nM; in test [5] it was 2.34 nM; in test [6], 0.525 to 0.53 nM. In addition, the IC50 in test [7] was determined as 2.24 nM.

For the compound `O=C(/C=C/c1cccnc1)NCCCCCc1cccc(S(=O)(=O)Nc2ccccc2)c1`, the IC50 was 140 nM in test [1]; 16.5 nM in test [2]; 16.2 nM in test [3]; 12.5 nM in test [4]; 105 nM in test [5]; 41.1 nM in test [6]. For the same compound, in test [7], the IC50 came to 146 nM.

Regarding `O=C(/C=C/c1cccnc1)NCCCCCc1ccc(S(=O)(=O)Nc2ccccc2)cc1`, the IC50 in test [1] worked out at 581 nM; in test [2] it was 28.4 nM; in test [3] it was 146 nM; in test [4], 95.7 nM; in test [5], 333 nM; in test [6], 408 nM. The IC50 in test [7] was found to be 778 nM.

`O=C(/C=C/c1cccnc1)NCCCCCCCc1cccc(S(=O)(=O)Nc2ccccc2)c1`: the IC50 was determined as 429 nM in test [1]; 31.3 nM in test [2]; 61.1 nM in test [3]; 42.6 nM in test [4]; 598 nM in test [5]; 138 nM in test [6]. Moreover, the IC50 in test [7] was found to be 316 nM.

In the case of `O=C(/C=C/c1cccnc1)NCCCCCCc1cccc(S(=O)(=O)Nc2ccc(Oc3ccccc3)cc2)c1`, the IC50 in test [1] amounted to 50.9 nM; in test [2], 13.1 nM; in test [3], 5.12 nM; in test [4] it was 3.84 nM; in test [5], 262 nM; in test [6] it was 32.7 nM. Further, the IC50 in test [7] is 25.6 nM.

Consider `O=C(/C=C/c1cccnc1)NCCCCCCc1cccc(S(=O)(=O)Nc2ccc(Cl)cc2)c1`, for which the IC50 in test [1] amounted to 84.4 nM; in test [2], 10.8 nM; in test [3], 6.41 nM; in test [4] it was 5.94 nM; in test [5], 170 nM; in test [6], 24.1 nM. In addition, the IC50 in test [7] is 33.3 nM.

Regarding `O=C(/C=C/c1cccnc1)NCCCCCCc1cccc(S(=O)(=O)Nc2ccccc2)c1`, the IC50 worked out at 6.73 nM in test [1]; 10.5 nM in test [2]; 0.88 nM in test [3]; 0.63 nM in test [4]; 30.4 nM in test [5]; 2.82 nM in test [6]. Besides, the IC50 in test [7] was found to be 6.37 nM.

On to `CC(C)(C)c1ccc(NS(=O)(=O)c2cccc(CCCCCCNC(=O)/C=C/c3cccnc3)c2)cc1`, for which the IC50 came to 281 nM in test [1]; 9.47 nM in test [2]; 24.7 nM in test [3]; 26.3 nM in test [4]; 1520 nM in test [5]; 163 nM in test [6]. The IC50 in test [7] was determined as 157 nM.

In the case of `O=C(/C=C/c1cccnc1)NCCCCc1ccc(S(=O)(=O)Nc2ccccc2)cc1`, the IC50 in test [1] was determined as 47.9 nM; in test [2] it was 17.8 nM; in test [3], 9.56 nM; in test [4], 5.03 nM; in test [5], 184 nM; in test [6], 24.2 nM. Further, the IC50 in test [7] stood at 63.6 nM.

For the compound `O=C(/C=C/c1cccnc1)NCCCc1ccc(S(=O)(=O)Nc2ccccc2)cc1`, the half-maximal inhibitory concentration (IC50) was > 10000 nM in test [1]; 5920 nM in test [2]; 4900 nM in test [3]; 4120 nM in test [4]; > 10000 nM in test [5]; > 10000 nM in test [6]. The IC50 in test [7] is > 10000 nM.

As to `Cc1ccc(C)c(NS(=O)(=O)c2cccc(CCCCCCNC(=O)/C=C/c3cccnc3)c2)c1`, the IC50 in test [1] is 7.48 nM; in test [2], 11.6 nM; in test [3] it was 0.84 nM; in test [4], 0.6 nM; in test [5] it was 22.6 nM; in test [6] it was 2.58 nM. Further, in test [7], the IC50 was determined as 4.88 nM.

Consider `O=C(/C=C/c1cccnc1)NCCCCCCc1cccc(S(=O)(=O)Nc2ccc(F)cc2)c1`, for which the IC50 in test [1] came out at 10.6 nM; in test [2] it was 9.2 nM; in test [3], 0.93 nM; in test [4] it was 0.91 nM; in test [5], 99.9 nM; in test [6], 4.28 nM. Also, in test [7], the IC50 was 1.34 nM.

In the case of `O=C(/C=C/c1cccnc1)NCCCCC1CCN(C(=O)c2ccccc2)CC1` [DAPORINAD], the IC50 in test [1] was 5.12 nM; in test [3], 0.96 nM; in test [4], 0.41 nM; in test [5] it was 3.75 nM; in test [6] it was 1.05 nM; in test [7] it was 4.76 nM.
